Source: ChEMBL document CHEMBL5338807, “Design and Synthesis of Bouchardatine Derivatives as a Novel AMP-Activated Protein Kinase Activator for the Treatment of Colorectal Cancer” (J Med Chem, 2023)
Calls of active or inactive are those of the source. No cut-off for these calls is given here.

Tests used:
[1] = tested on: RKO; assay: Effect on metabolism in human RKO cells assessed as enhancement of oxygen consumption rate at 0.1 uM measured after 24 hrs by seahorse analysis; assay type: functional, cell-based
[2] = tested on: RKO; assay: Antiproliferative activity against human RKO cells assessed as reduction in cell viability incubated for 24 hrs; assay type: functional, cell-based
[3] = tested on: DLD-1; assay: Antiproliferative activity against human DLD-1 cells assessed as reduction in cell viability incubated for 24 hrs; assay type: functional, cell-based; conditions: DLD-1, 24 h
[4] = tested on: HCT-116; assay: Antiproliferative activity against human HCT-116 cells assessed as reduction in cell viability incubated for 24 hrs; assay type: functional, cell-based; conditions: HCT-116, 24 h
[5] = tested on: SW480; assay: Antiproliferative activity against human SW480 cells assessed as reduction in cell viability incubated for 24 hrs; assay type: functional, cell-based; conditions: SW480, 24 h
[6] = Cytotoxicity against human NCM460 cells assessed as reduction in cell viability incubated for 24 hrs; assay type: toxicity, cell-based
[7] = Cytotoxicity against human LX2 cells assessed as reduction in cell viability incubated for 24 hrs; assay type: toxicity, cell-based; conditions: LX-2 cells
[8] = Cytotoxicity against human L02 cells assessed as reduction in cell viability incubated for 24 hrs; assay type: toxicity, cell-based
[9] = tested on: RKO; assay: Antiproliferative activity against human RKO cells assessed as reduction in cell density at 0.1 uM measured after 16 hrs by RTCA assay; assay type: functional, cell-based
[10] = tested on: RKO; assay: Antiproliferative activity against human RKO cells assessed as cell killing at 0.5 uM measured after 16 hrs by RTCA assay; assay type: functional, cell-based
[11] = tested on: RKO; assay: Antiproliferative activity against human RKO cells assessed as inhibition of colony formation at 0.1 uM measured after 7 days by crystal violet staining based assay; assay type: functional, cell-based; conditions: time 7.0 day
[12] = tested on: RKO; assay: Inhibition of cell migration of human RKO cells at 0.1 uM incubated for 48 hrs by wound healing assay; assay type: functional, cell-based
[13] = tested on: RKO; assay: Effect on metabolism in human RKO cells assessed as oxygen consumption rate by measuring enhancement of basal respiration at 0.1 uM measured after 24 hrs by seahorse analysis; assay type: functional, cell-based
[14] = tested on: RKO; assay: Effect on metabolism in human RKO cells assessed as oxygen consumption rate by measuring enhancement of maximal respiration at 0.1 uM measured after 24 hrs by seahorse analysis; assay type: functional, cell-based
[15] = tested on: RKO; assay: Effect on metabolism in human RKO cells assessed as oxygen consumption rate by measuring enhancement of ATP production at 0.1 uM measured after 24 hrs by seahorse analysis; assay type: functional, cell-based
[16] = tested on: RKO; assay: Effect on metabolism in human RKO cells assessed as oxygen consumption rate by measuring enhancement of proton leak at 0.1 uM measured after 24 hrs by seahorse analysis; assay type: functional, cell-based
[17] = tested on: NCM460; assay: Effect on metabolism in human NCM460 cells assessed as change in extracellular acidification rate at 0.1 uM measured after 24 hrs by seahorse analysis; assay type: functional, cell-based
[18] = tested on: RKO; assay: Effect on energy metabolism in human RKO cells assessed as upregulation of ATP production incubated for 24 hrs by luminescence based analysis; assay type: functional, cell-based
[19] = tested on: RKO; assay: Effect on energy metabolism in human RKO cells assessed as increase in AMP level incubated for 24 hrs by luminescence based analysis; assay type: functional, cell-based
[20] = tested on: RKO; assay: Effect on energy metabolism in human RKO cells assessed as increase in mitochondrial membrane potential at 0.1 uM incubated for 24 hrs by rhodamine 123 staining based flow cytometric analysis; assay type: functional, cell-based
[21] = tested on: RKO; assay: Induction of mitochondrial damage in human RKO cells assessed as decrease in ROS level at 0.1 uM incubated for 24 hrs by DCFH-DA staining based flow cytometric analysis; assay type: functional, cell-based
[22] = tested on: RKO; assay: Upregulation of p-AMPK expression in human RKO cells at 0.1 uM incubated for 24 hrs by Western blotting analysis; assay type: functional, cell-based
[23] = tested on: RKO; assay: Upregulation of mitochondrial complex III in human RKO cells at 0.1 uM incubated for 24 hrs by Western blotting analysis; assay type: functional, cell-based
[24] = tested on: RKO; assay: Upregulation of mitochondrial complex V in human RKO cells at 0.1 uM incubated for 24 hrs by Western blotting analysis; assay type: functional, cell-based
[25] = tested on: RKO; assay: Antiproliferative activity against human RKO cells assessed as reduction in cell viability incubated for 24 hrs by propidium iodide staining based high-content screening method; assay type: functional
[26] = tested on: RKO; assay: Antiproliferative activity against human RKO cells assessed as reduction in cell viability incubated for 24 hrs in presence of oligomycin by propidium iodide staining based high-content screening method; assay type: functional
[27] = tested on: RKO; assay: Antiproliferative activity against human RKO cells assessed as reduction in cell viability incubated for 24 hrs in presence of FCCP by propidium iodide staining based high-content screening method; assay type: functional
[28] = tested on: RKO; assay: Antiproliferative activity against human RKO cells assessed as reduction in cell viability incubated for 24 hrs by propidium iodide staining based high-content screening method relative to control; assay type: functional
[29] = tested on: RKO; assay: Antiproliferative activity against human RKO cells assessed as reduction in cell viability incubated for 24 hrs in presence of oligomycin by propidium iodide staining based high-content screening method relative to control; assay type: functional
[30] = tested on: RKO; assay: Antiproliferative activity against human RKO cells assessed as reduction in cell viability incubated for 24 hrs in presence of FCCP by propidium iodide staining based high-content screening method relative to control; assay type: functional
[31] = tested on: RKO; assay: Antitumor activity against human RKO cells xenografted in BALB/nude mouse assessed as tumor growth inhibition at 10 mg/kg, ip administered once daily for 25 days; assay type: functional; conditions: 600 h, time 25 day
[32] = Toxicity in BALB/nude mouse xenografted with human RKO cells assessed as body weight loss at 10 mg/kg, ip administered once daily for 25 days; assay type: organism-based; conditions: in vivo, 600 h, time 25 day
[33] = tested on: RKO; assay: Antitumor activity against human RKO cells xenografted in BALB/nude mouse assessed as activation of p-AMPKalpha at Thr172 residue in tumor tissue at 10 mg/kg, ip administered once daily for 25 days by immunohistochemical based microscopic analysis; assay type: functional, organism-based; conditions: time 25.0 day

Question: What does the source list for `O=Cc1c(-c2nc(NCCc3ccc(O)cc3)c3ccccc3n2)[nH]c2ccccc12`?
Answer: Activity [1]: Active; IC50 [2]: 0.1 µM; IC50 [3]: < 1 µM; IC50 [4]: < 1 µM; IC50 [5]: < 1 µM; IC50 at 24 h [6]: > 15 µM; IC50 at 24 h [7]: > 15 µM; IC50 at 24 h [8]: > 15 µM; Activity [9]: Active; Activity [10]: Active; inhibition [11]: Active; inhibition [12]: Active; Activity [13]: Active; Activity [14]: Active; Activity [15]: Active; Activity [16]: Active; Activity [17]: inactive; Activity [18]: Active; Activity [19]: Active; Activity [20]: Active; Activity [21]: Active; Activity [22]: Active; Activity [23]: Active; Activity [24]: Active; IC50 [25]: 0.07 µM; IC50 [26]: > 1 µM; IC50 [27]: > 1 µM; inhibition (INH) [28]: 92%; inhibition (INH) [29]: 52%; inhibition (INH) [30]: 25%; inhibition in vivo at 10 mg/kg [31]: 58.2%; Activity [32]: Non-Toxic; Activity [33]: Active
